Test results reported in patent US12691094B2, “Use of Crassifolin A in preparation of drug for promoting mitophagy and treating neurodegenerative diseases” (JINAN UNIVERSITY, priority 2021, dated 2026).

Experiments:
[1] = tested on: LC3B; assay: Western blot of LC3B in hSY5Y cells; type: cell-based; conditions: JGX-1 10 μmol/L, 24 h
Excerpt: • a. […]

[2] = tested on: pTAU (202); assay: Western blot of phosphorylated Tau in hSY5Y cells; type: cell-based; conditions: JGX-1 10 μmol/L, 24 h
Excerpt: • a. […]

[3] = tested on: Tau model mice; assay: Morris water maze test of learning memory; type: in vivo; conditions: 10-month-old Tau model mice, oral 20 mg/kg for 3 consecutive months
[4] = tested on: Hela-mt-Keima cells; assay: Detection of mitophagy in Hela-mt-Keima cells by confocal microscopy; type: cell-based; conditions: 10 μM JGX-1, 8 h
Excerpt: (§1) The Keima fluorescent protein derived from anthozoan has a pH value-dependent bimodal excitation spectrum, that is, Keima at neutral pH and acidic pH can be excited to emit green fluorescence and red fluorescence under the excitation of light with a wavelength of 440 nm and 586 nm, respectively. Since mitochondria that undergo autophagy eventually enter acidic lysosomes, Keima with the mitochondrial localization (mitochondrial Keima, mt-Keima) can indicate the mitochondria that enter the lysosomes via the autophagic pathway. The specific procedure of this experiment is as follows:
Inoculation of Hela-mt-Keima cells into 12 laser confocal cell culture dishes at a density of 1×10^4, and then adding 1 mL of DMEM medium containing 10% (v/v) FBS; after 5 h, changing the solution, and dividing into a solvent control group (DMSO), a positive drug control group (10 μM FCCP), an experimental group 1 (10 μM JGX-1+10 μM FCCP) and an experimental group 2 (10 μM JGX-1), with 3 replicates in each group; incubating cells in a 5% (v/v) CO2 cell culture incubator at 37° C.; after 8 h, observing the changes in the excitation fluorescence signals of the 458 nm channel (indicating Keima at neutral pH) and the 561 nm channel (indicating Keima at acidic pH) under a laser confocal microscope, randomly selecting 3 fields of view to take photos, and then statistically plotting.

[5] = tested on: Hela-mt-Keima cells; assay: Flow cytometry of Hela-mt-Keima cells for screening a mitophagy drug; type: cell-based; conditions: 10 μM JGX-1+10 μM FCCP (FIG. 1 legend: JGX-1 10 μM)
Excerpt: as §1, with “is, Keima can be” for “is, Keima at neutral pH and acidic pH can be”, “green fluorescence at neutral pH and acidic pH and red” for “green fluorescence and red”, “mitochondrial localization (mitocondrial Keima, mt-Keima)” for “mitochondrial localization (mitochondrial Keima, mt-Keima)”, “is as follow:” for “is as follows:”
Inoculation of Hela-mt-Keima cells into a 24-well plate at a density of 5×10^4, and then adding 1 mL of DMEM medium containing 10% (v/v) fetal bovine serum (FBS) to them to culture for 24 h; after 24 h, respectively adding 0.1% (v/v) DMSO (dimethyl sulfoxide), with DMSO (10 μM) as a solvent control group (DMSO), 10 μM of mitochondrial uncoupling agent (FCCP) (sigma) as a positive drug control group, and 10 μM JGX-1+10 μM FCCP as an experimental group, each group having 3 replicates; collecting cells on the third day by centrifugation at 1000×g for 3 min, resuspending in 0.5 mL of PBS buffer, sieving at 40 μm on the machine, collecting 5×10^4 cells by flow cytometry, recording the collection time, 405 nm/Qdot605-A, 561 nm/PE-Texas Red-A, and calculating MI=561/405+561.

In the case of `COC(=O)[C@]1(C)CCCC2=C1CC[C@@H](C)[C@]2(C)CCC1=CC(=O)OC1` [JGX-1, Crassifolin A], the “expression of autophagic LC3B” value [1] is reported as “enhanced”, the “expression of phosphorylated Tau” value [2] is reported as “inhibited” and the “dementia symptoms in the model mice” value [3] is reported as “alleviated”. The “learning memory of AD model mice” value [3] was “improved effect”, the “mitophagy (confocal live cell imaging)” value [4] was “enhance mitophagy” and the “mitophagy (flow cytometry, MI=561/405+561)” value [5] was “enhance mitophagy”.
